Columns and labels:
platelets = experiment: Platelet intra-cellular calcium concentration (Indo-1-AM); type: cell-based, human; conditions: TRAP-6 10 μM, vs solvent
Experimental: Freshly-isolated human platelets were incubated with either control DMSO or the indicated WASp-binding SMCs, specifically, SMC #6 (FIG. 11A), SMC #30 (FIG. 11B), SMC #33 (FIG. 11C) and SMC #34 (FIG. 11D). Platelets were stimulated with TRAP-6 and calcium levels were measured by spectrofluorometer, as described in Experimental procedures. Data are representative of three independent experiments.
Cells were incubated with 5 μM Indo-1-acetoxymethylester (Indo-1-AM, Teflabs) in Tyrode's buffer at 37° C. for 20 min. The cells were washed once, resuspended in Tyrode's buffer containing 10 mM HEPES and maintained at room temperature for 20 min. The cells were incubated at 37° C. for 5 min before measurements and then stimulated with 10 μM TRAP-6. The Ca^2+ influx was measured by spectrofluorometer using the Synergy 4 Microplate Reader (Bio Tek).
However, following receptor-mediated stimulation, platelets dramatically elevate their intra-cellular calcium concentrations, which in turn serve as signaling cues that evoke platelet effector functions, including platelet spreading, adhesion and aggregation (Varga-Sabo et al, 2009). Therefore, the ability of WASp-protecting SMCs to upregulate intra-cellular calcium accumulation in activated platelets was next tested. Freshly-isolated human platelets were incubated with SMC #6, #30, #33 and #34 or with the solvent (negative control). Following incubation, platelets were stimulated with thrombin receptor activator peptide TRAP-6 (10 μM) and calcium levels were measured by spectrofluorometer, using Indo-1-AM-based calcium assay as described in Experimental procedures.

WIP-WASp interaction = target: T1, WIP-WASp interaction (Homo sapiens, UniProt P42768, K230R/R34Q); experiment: FRET analysis of WIP-WASp interaction in activated T-cells expressing CFP-WASp and YFP-WIP; type: cell-based; conditions: anti-CD3 stimulatory coverslips, fixed after 5 min; mean ± SE
T1 construct: expressed in transfected cells
Experimental: FIG. 13A: Jurkat T cells stably expressing CFP-WASp and YFP-WIP were treated with WASp-binding SMC #6, SMC #30, SMC #33, SMC #34 or control. The cells were then plated on stimulatory coverslips (coated with an anti-CD3 antibody), and fixed after 5 min. Cells were imaged by confocal microscope, and FRET efficiency was measured by the donor-sensitized acceptor emission technology (see Experimental procedures for details).
FIG. 13B: graph summarizing the percentage FRET efficiency in cells plated on the stimulatory coverslips, with the indicated treatment. Data are from four independent experiments. Error bars represent the SE from the mean. P values were calculated by two-tailed Student's t-test.
Spreading assays were performed as previously described (Fried et al, 2014; Barda-Saad 2005). Briefly, T cells (2×10^6 cells/ml) were seeded on the bottom of chambered cover glasses (LabTek) that were pre-coated with anti-CD3 stimulatory monoclonal antibodies (10 μg/ml). The cells were incubated in imaging buffer [RPMI without phenol red containing 10% fetal calf serum (FCS) and 25 mM HEPES] at 37° C., 5% CO2, for the times indicated in the figure legends. Cells were fixed for 25 min with 4% paraformaldehyde in phosphate-buffered saline (PBS) and then were washed three times with PBS.
Double-color FRET was performed as described previously (Barda-Saad et al, 2005; Pauker, 2011, Pauker, 2012). […] The non-FRET components were calculated and removed with calibration curves derived from images of single-labeled cells containing CFP or YFP, as previously described (Barda-Saad et al, 2005). […] Bleed-through components were calculated as a function of the intensity of the expressed fluorescent proteins with data gathered from single-labeled cell lines. By using the intensity measured pixel by pixel through the different filter sets, as well as cross-talk elements that were isolated from the control, single-labeled cells, the measured FRET was corrected and the actual FRET efficiency at every pixel was determined. The relative FRET efficiency (FRETeff) was calculated on a pixel-by-pixel basis with the following equation: FRETeff=FRETcorr/(FRETcorr+donor)×100%, where FRETcorr is the pixel intensity in the corrected FRET image, and donor is the intensity of the corresponding pixel in the appropriate donor channel image. To increase the reliability of the calculations and to prevent low-level noise from distorting the calculated ratio, the inventors excluded pixels below 50 intensity units, as well as saturated pixels from the calculations, and set their intensities to zero. […] The FRET efficiency in the negative control system was measured and calculated in the same manner as that in the main experiment. […]

Jurkat T cells = experiment: Lymphocyte migration on ICAM-1/SDF-1α-coated cover glasses; type: cell-based, human; conditions: tracked over 20 min, mean ± SE
Experimental: Jurkat T cells were pretreated with DMSO or the indicated WASp-binding SMCs, and cell migration on ICAM-1/SDF-1α-coated cover glasses was tracked over a 20-min period, as described in Experimental procedures. Each line in FIG. 10A represents one cell. The tracks of five representative cells from each treatment are presented.
Error bars represent the SE from the mean. P values versus DMSO-treated control cells are presented and were calculated by two-tailed Student's t-test.
Approximately 1×10^5 lymphocytes were seeded over chambered coverslips (LabTek) pre-coated with 6 μg/ml ICAM-1 and 2 μg/ml SDF-1α. Cells were incubated at 37° C., 5% CO2 and DIC images were acquired with the Zeiss Observer Z1 inverted microscope every 5 s for 20 min under a 20× objective lens using Zen software. The random movement (Displacement and velocity) of the cells was automatically tracked and analyzed using TrackMate plugin of ImageJ software. An individual trace was assigned to each of the analyzed cells.
A common theme of active lymphocytes is their high migratory ability. This enables them to move within tissues and reach and engage target cells (Burkhardt et al, 2008). Because WASp plays a role in cellular motility, the ability of WASp-binding SMCs to effectively enhance the migration of lymphocytes was tested. The random movement of SMC-treated or control cells was automatically tracked and analyzed using live microscopy, as described in Experimental procedures.

T1 sequence (P42768 whole entry R34Q/K230R): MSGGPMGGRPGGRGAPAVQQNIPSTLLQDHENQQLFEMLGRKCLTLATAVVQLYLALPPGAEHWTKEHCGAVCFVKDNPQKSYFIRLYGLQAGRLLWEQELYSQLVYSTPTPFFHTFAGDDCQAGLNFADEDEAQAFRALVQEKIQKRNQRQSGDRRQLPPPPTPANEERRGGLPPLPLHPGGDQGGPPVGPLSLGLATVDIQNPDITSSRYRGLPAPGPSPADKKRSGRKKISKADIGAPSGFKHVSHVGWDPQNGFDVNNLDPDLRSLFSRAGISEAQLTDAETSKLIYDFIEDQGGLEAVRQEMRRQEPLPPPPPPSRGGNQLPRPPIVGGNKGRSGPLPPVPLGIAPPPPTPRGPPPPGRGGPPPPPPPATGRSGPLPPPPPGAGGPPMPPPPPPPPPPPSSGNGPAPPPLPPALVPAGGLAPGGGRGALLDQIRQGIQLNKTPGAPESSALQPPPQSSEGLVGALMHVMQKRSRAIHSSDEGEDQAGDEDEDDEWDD
T1 sequence (O43516 whole entry partner): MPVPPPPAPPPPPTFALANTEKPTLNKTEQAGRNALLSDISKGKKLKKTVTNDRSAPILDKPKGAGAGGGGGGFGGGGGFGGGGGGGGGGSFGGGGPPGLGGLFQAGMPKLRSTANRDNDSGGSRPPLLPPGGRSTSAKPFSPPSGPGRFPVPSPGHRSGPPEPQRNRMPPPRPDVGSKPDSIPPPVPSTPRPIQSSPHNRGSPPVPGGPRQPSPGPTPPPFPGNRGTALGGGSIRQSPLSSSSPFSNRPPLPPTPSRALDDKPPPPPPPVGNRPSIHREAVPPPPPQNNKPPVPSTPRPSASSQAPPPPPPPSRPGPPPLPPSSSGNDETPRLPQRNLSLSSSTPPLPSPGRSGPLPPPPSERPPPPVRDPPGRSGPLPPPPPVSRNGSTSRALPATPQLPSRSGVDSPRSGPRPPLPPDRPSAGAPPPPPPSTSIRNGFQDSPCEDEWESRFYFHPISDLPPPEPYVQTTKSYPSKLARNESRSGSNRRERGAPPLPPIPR

Row | average FRET efficiency (WIP-WASp interaction) | Structure (SMILES) | intra-cellular calcium concentration in activated platelets (platelets) | mean cell displacement (Jurkat T cells)
1 | 22.7±1.4% | CC(=O)N[C@H]1C[C@@H](c2ccc3c(c2)nnn3C)O[C@@H](c2ccc(Cl)cc2)C1 [SMC #6, N-[(2R,4R,6S)-2-(4-chlorophenyl)-6-(1-methylbenzotriazol-5-yl)oxan-4-yl]acetamide] | dramatically enhanced | 29.52±2.96
2 | 21.4±1.4% | Cc1ccccc1N(CC(=O)NCc1ccccc1)C(=O)CCC(=O)Nc1nccs1 [SMC #33, N′-[2-(benzylamino)-2-oxoethyl]-N′-(2-methylphenyl)-N-(1,3-thiazol-2-yl)butanediamide] | dramatically enhanced | 32.92±4.28

Row | Structure (SMILES) | average FRET efficiency (WIP-WASp interaction) | intra-cellular calcium concentration in activated platelets (platelets) | mean cell displacement (Jurkat T cells)
3 | CC1CCCC(C)N1C(=O)CSc1nnc(COc2cccc3cccnc23)o1 (stereo not drawn) [SMC #34, 1-(2,6-dimethylpiperidin-1-yl)-2-[[5-(quinolin-8-yloxymethyl)-1,3,4-oxadiazol-2-yl]sulfanyl]ethanone] | 23.8±1.1% | dramatically enhanced | 48.91±6
